Data as given in patent US9393316B2, “Cancer targeting peptides for enhancing anti-cancer drug delivery and therapeutic efficiencies” (priority 2014, dated 2016).
Where no end group is shown, it is not given here.

Tested on: HCT116 cells
Assay: Flow cytometry binding of biotinylated pHCT74 peptide
Set-up: species or system human
Procedure: We propose the use of biotinylated pHCT74 peptide and a chemical cross-linker, DTSSP, to identify the unknown target protein on the plasma membrane of HCT116 cells. A biotin molecule was conjugated to the C terminus of synthetic pHCT74 peptide. The binding characteristics of biotinylated pHCT74 peptide to HCT116 cells were evaluated by flow cytometry for analyzing the concentration dependency of the binding (FIG. 4B). […] The membrane proteins of HCT116 cells were bound with biotin-pHCT74 peptide, cross-linked by DTSSP; followed by SDS-PAGE separation and LC/MS/MS analysis. A sharp bands was detected by silver staining (FIG. 4C), and subsequently analyzed by LC/MS/MS after tryptic digestion. Twelve tryptic peptides were identified as alpha-enolase (ENO1) fragments by search algorithms based on MASCOT software. Coverage of the identified peptides was 57% of the alpha-enolase sequence and the probability score was 424 (FIG. 4D).

biotinylated pHCT74 peptide: synthetic pHCT74 peptide with a biotin molecule conjugated to the C terminus (SSMDIVLRAPLMGGG-biotin)
cell binding activity after C-terminal biotin addition: did not affect its cell binding activity
